From EPA's ToxValDB 9.5
Several values for one entry are separate records, joined by “and”; a condition that tells them apart may be missing. Equal entries are not always repeated.

Legend:
Mus musculus [1] = conditions: repeat dose other; oral
Rattus norvegicus [2] = conditions: subchronic, oral, diet, Fischer 344, Hematology: Hct decrease, Hgb decrease, RBC decrease + Blood Chemistry: CPK increase + Absolute Organ Weight: Liver decrease + Relative …
Rattus norvegicus [3] = system: Rattus norvegicus
Homo sapiens [4] = conditions: clinical; duration: 3.5 hours; inhalation; M; neurological
Tatera sp. = conditions: intermediate; duration: 3 months; Inhalation; M/F; Mongolian; neurological
Canidae [5] = conditions: chronic, duration: 1 years, oral, diet, Dog Other, Cardiac toxicity and moderate-to-severe dilation of the right atrium
Oryctolagus sp. [6] = conditions: for NOAEL: New Zealand
Sus scrofa = conditions: short-term; duration: 19 days; oral; diet; F; Swedish Landrace/Large Yorkshire cross; reproductive
Rattus norvegicus [7] = conditions: oral, diet
Oryctolagus sp. [8] = system: Oryctolagus sp.
Mus musculus [9] = conditions: acute, duration: 1 days, oral
Oryctolagus sp. [10] = system: Oryctolagus sp.; remark: listed apart in the source
Homo sapiens [11] = conditions: clinical; duration: 3 weeks; oral; capsule; F
Rattus norvegicus [12] = conditions: acute, oral, Sprague-Dawley
Rattus norvegicus [13] = assay: LD0; higher = less toxic; conditions: acute; dermal; semiocclusive; Sprague-Dawley
Cricetulus sp. = conditions: subchronic; duration: 13 weeks; inhalation; M/F; Hamster; increased hemolysis, abnormal rbc morphology, and increased spleen weight
Mus musculus [14] = conditions: subchronic, inhalation
Oryctolagus sp. [15] = conditions: subchronic; duration: 10 weeks; oral; drinking water; M; Dutch-belted; Endocrine
Canidae [16] = conditions: subchronic; duration: 7 weeks; oral; gavage; M/F; Beagle
Anas platyrhynchos = conditions: oral
Rattus norvegicus [17] = conditions: developmental, oral, M/F, developmental
Phasianus colchicus = conditions: oral
Rattus norvegicus [18] = conditions: repeat dose other; oral
Cavia porcellus = conditions: subchronic; duration: 90 days; oral; diet; M/F; Guinea Pig; lymphatic
Monkey = conditions: developmental; duration: 16 months; oral; diet; M/F; Rhesus; developmental
[19] = chronic, duration: 2 years, oral, diet, M/F, reduced body weight gain
[20] = duration: 12 weeks, Increased hemolysis, increased spleen weight, and impaired compensatory erythropoiesis
[21] = duration: 13 weeks, M/F, increased hemolysis, abnormal rbc morphology, and increased spleen weight
[22] = subchronic, duration: 13 weeks, inhalation, M/F, increased hemolysis, abnormal rbc morphology, and increased spleen weight
[23] = developmental, oral, F, reduced stool quantity, food consumption and body weight gain hyperirritability (maternal effects)
[24] = subchronic, duration: 13 weeks, inhalation, M, testicular effects

CC(Cl)(Cl)Cl [1,1,1-Trichloroethane] was tested, and the NOAEL (Mus musculus [1]) was 1000 mg/kg-day, the NOEL (Rattus norvegicus [2]; F) was 310 mg/kg-day and the NOEL (Rattus norvegicus [2]; M/F) was 480 mg/kg-day. It also gave an NOAEL (Rattus norvegicus [3]; chronic, duration: 2 years, inhalation, M/F, liver histopathologic changes) of 8190 mg/m3, an LOAEL (Homo sapiens [4]) of 955 mg/m3 and an NOAEL (Tatera sp.) of 70 ppm.
In the case of CCNc1nc(Cl)nc(NC(C)C)n1 [Atrazine], the LOAEL (Canidae [5]; F) is reported as 33.8 mg/kg-day, the NOAEL (Canidae [5]; M/F) is reported as 4.97 mg/kg-day and the LOAEL (Canidae [5]; M) is reported as 33.6 mg/kg-day. For the same compound, the LOAEL (Rattus norvegicus [3]; [19]) was 25 mg/kg-day, the NOAEL (Rattus norvegicus [3]; [19]) was 3.5 mg/kg-day and the NOAEL (Oryctolagus sp. [6]; reproduction developmental, duration: 12 days, oral, gavage, F, body weight) was 1 mg/kg-day. The LOAEL (Sus scrofa) was 1 mg/kg-day and the NOEL (Rattus norvegicus [7]; chronic, duration: 2 years, Whole body: Decreased weight gain) was 3.5 mg/kg-day.
With S=C=S [Carbon disulfide] the NOEL (Oryctolagus sp. [8]; developmental, oral, M/F, fetal toxicity/ malformations) was 11 mg/kg-day, the LOAEL (Mus musculus [9]; M, DD, hepatic) was 3 mg/kg-day and the NOEL (Oryctolagus sp. [10]; developmental, inhalation, intermittent, Fetus: Toxicity) was 11 mg/kg-day.
Work on [Cl-].[Rb+] [Rubidium chloride (RbCl)] yielded an LOAEL (Homo sapiens [11]) of 5.3 mg/kg-day.
For C[S-].[Na+] [Sodium thiomethoxide], the LD50 (Rattus norvegicus [12]) was ≥ 75 mg/kg and ≤ 161 mg/kg, the LD50 (Rattus norvegicus [12]; gavage) was 109 mg/kg and ≥ 84 mg/kg and ≤ 146 mg/kg and the LD0 (Rattus norvegicus [13]) was no less than 400 mg/kg.
Work on [AsH3] [Arsine] yielded an LOAEL (Cricetulus sp.) of 1.6 mg/m3, an NOAEL (Cricetulus sp.) of 0.08 mg/m3 and an LOAEL (Mus musculus [14]; [20]) of 1.6 mg/m3. For the same compound, the NOAEL (Mus musculus [14]; [20]) was 0.08 mg/m3, the LOAEL (Mus musculus [14]; [21]) was 1.6 mg/m3 and the NOAEL (Mus musculus [14]; [21]) was 0.08 mg/m3. For the same compound, the LOAEL (Rattus norvegicus [3]; [22]) was 1.6 mg/m3 and the NOAEL (Rattus norvegicus [3]; [22]) was 0.08 mg/m3.
For CCOC(=O)C(O)(c1ccc(Cl)cc1)c1ccc(Cl)cc1 [Chlorobenzilate], the LEL (Oryctolagus sp. [8]; [23]) was 20 mg/kg-day, the NOEL (Oryctolagus sp. [8]; [23]) was 5 mg/kg-day and the NOEL (Oryctolagus sp. [10]; short-term, duration: 13 days, oral, gavage, Gastrointestinal system: Decreased stool quantity + Nervous system: Hyperirritability + Whole body: Decreased food consumption + Whole body…) was 5 mg/kg-day.
With ClCC(Br)CBr (configuration not stated) [1,2-Dibromo-3-chloropropane] the LOAEL (Oryctolagus sp. [8]; [24]) was 9.4 mg/m3, the NOAEL (Oryctolagus sp. [8]; [24]) was 0.94 mg/m3 and the NOAEL (Oryctolagus sp. [15]) was 0.7 mg/kg-day. For the same compound, the NOAEL (Oryctolagus sp. [6]; chronic, duration: 14 weeks, inhalation, M, reproductive) was 0.967 mg/m3 and the LOAEL (Oryctolagus sp. [6]; subchronic, duration: 10 weeks, oral, drinking water, M, Dutch belted, reproductive) was 1.88 mg/kg-day.
With O=P(c1ccccc1)(c1ccccc1)c1ccccc1 [Triphenylphosphine oxide] the LOAEL (Canidae [16]) was 50 mg/kg-day.
ClC1C(Cl)C(Cl)C(Cl)C(Cl)C1Cl (configuration not stated) [Lindane] was tested, and the LOAEL (Anas platyrhynchos) was 20 mg/kg-day, the NOAEL (Anas platyrhynchos) was 2 mg/kg-day and the NOAEL (Rattus norvegicus [3]; subchronic, oral, F, liver and kidney toxicity) was 0.33 mg/kg-day. The LOAEL (Rattus norvegicus [3]; subchronic, oral, M, liver and kidney toxicity) was 1.55 mg/kg-day, the NOAEL (Rattus norvegicus [17]; duration: 13 weeks, drinking water, Sprague-Dawley) was 7.6e-05 mg/kg-day and the LOAEL (Rattus norvegicus [17]; duration: 1 days, gavage, Bor:spf) was 1 mg/kg-day. For the same compound, the NOAEL (Rattus norvegicus [7]; subchronic, duration: 12 weeks, Kidney: Toxicity + Liver: Toxicity) was 0.33 mg/kg-day.
In the case of Clc1cc2c(cc1Cl)Oc1cc(Cl)c(Cl)cc1O2 [2,3,7,8-Tetrachlorodibenzo-p-dioxin], the LOAEL (Phasianus colchicus) is reported as 0.00014 mg/kg-day, the NOAEL (Phasianus colchicus) is reported as 1.4e-05 mg/kg-day and the LOAEL (Rattus norvegicus [18]) is reported as 1e-05 mg/kg-day. It also gave an NOAEL (Rattus norvegicus [18]) of 1e-06 mg/kg-day, an NOAEL (Cavia porcellus) of 7e-07 mg/kg-day and an LOAEL (Monkey) of 1.2e-07 mg/kg-day. It also gave an NOAEL (Mus musculus [9]; gavage, F, B6C3F1, immunological) of 5e-06 mg/kg-day.
